Measurements reported in patent publication US11896589B2, “Diazinyl amino acridines and medical uses thereof” (MyCural Therapeutics AB, priority 2018, dated 2024).
Like-named read-outs stand apart in the source and are kept apart here.

Columns and labels:
[1] = tested on: MYCN-amplified neuroblastoma cells (SK-N-DZ, Kelly, IMR-32); test: Assay 5A neuroblastoma cell growth (WST-1), MYCN-amplified; type: cell-based; settings: Homo sapiens, second run
Protocol: FIG. 6: A-B) Neuroblastoma cell lines with (SK-N-DZ, Kelly and IMR-32) or without (SK-N-F1, SK-N-RA and SK-N-AS) MYCN-amplification were exposed to different concentrations of Example 1, Example 2 and control compound, respectively, for 48 hours. Cell growth and viability was estimated by measuring metabolic activity. C) Growth of TGR-1 (wt), HO15.19 (MYC knockout) and HOmyc3 (MYC reconstituted HO15.19) Rat1 fibroblasts, as measured by the WST-1 assay after treatment with Example 1. Data are shown as mean±standard deviation of 3-5 biological experiments, each with 3 technical repeats.
Assay 5A: Neuroblastoma Cell Growth
Neuroblastoma cell lines with (SK-N-DZ, Kelly and IMR-32) or without (SK-N-F1, SK-N-RA and SK-N-AS) MYCN-amplification were exposed to different concentrations of example compounds for 48 hours. Cell growth and viability was estimated by measuring metabolic activity by incubating cells in triplicates with WST-1 (Roche) in medium at 37° C. and 5% CO2 for 2 hours after which absorbance was measured with an Omega Fluostar (BMG Labtech) in a 96 well plate format.

MYCbHLHZip [2] = target: T1, MYCbHLHZip (Homo sapiens, UniProt P01106); test: Assay 2A MYC binding MST assay; settings: approximately 200 nM labelled MYC, compound titrated
T1 construct: An amino coupling procedure was used to immobilize MYCbHLHZip protein on a CM5 sensor chip
Protocol: FIG. 2: A) MST assay of Example 1 effect on MYC and MAX, respectively. Recombinant MYC bHLHZip and MAX bHLHZip proteins were titrated, respectively, in a fixed concentration (3 μM) of Example 1. Changes in fluorescence were measured and normalized to control (buffer). Data are shown as mean±standard deviation of 6-8 biological repeats. B) MST assay of MYC (reverse MST). A fixed concentration of 200 nM labeled MYC was mixed with different concentrations of Example 1 as indicated. Data are shown as mean±standard deviation of 5 biological repeats. C) MST assay of Example 2 effect on MYC. D) MST assay of MYC with a control compound (non-binder).
Assay 2A. MYC Binding MST Assay
The MYC MST assay was performed as described above (Biological example 1—Assay 1A), except that the fluorescent molecule was either protein or Example 1. The example compound was kept at a fix concentration of 3 μM in PBS supplemented with 0.05% Tween-20, while MYCbHLHZip or MAX was titrated. The migration of example compound changed at MYC protein concentrations above 1 μM, but was unaffected with MAX up to highest concentration tested (15 μM) (FIG. 2A). […]

MYCbHLHZip [3] = target: T1, MYCbHLHZip; test: Assay 2B MYC SPR assay; type: binding
Protocol: FIG. 3: A) SPR assay to determine affinity of Example 1 to MYC. MYC bHLHZip protein was immobilized by aminocoupling on a CM5 sensor chip. Example 1 was injected at various concentrations in a kinetic experiment. The reference surface was subtracted from the analyte surface to generate a sensorgram. […] B) Four MYC equilibrium binding experiments with Example 1 summarized in an equilibrium binding plot. […] Equilibrium binding experiments of MYC with Example 2 and control compound (non-binder) were plotted as well. Assay 2B. MYC SPR Assay To analyze the direct binding of compounds to MYC, the direct binding of compounds to MYC was detected by surface plasmon resonance (SPR) as described above (Biological example 1—Assay 1B). An amino coupling procedure was used to immobilize MYCbHLHZip protein on a CM5 sensor chip (GE Healthcare) resulting in immobilization levels of approximately 800 respectively 1000 RU. The compounds were injected at different concentrations, one at a time, over the surface for 50-80 seconds with a flow rate of 30 μl/min. Afterwards the compounds were allowed to dissociate for 240 seconds in running buffer (137 mM NaCl, 2.7 mM KCl, 10 mM Na2HPO4, 1.8 mM KH2PO4, 0.005% Tween-20, 1% DMSO, pH 7.4). To remove all remaining analyte the surface was regenerated with 2M Urea for 30 seconds and thereafter 1M NaCl, 2.7 mM KCl, 10 mM Na2HPO4, 1.8 mM KH2PO4, 1% DMSO, pH 7.4 for 30 seconds. Sensorgrams were generated by subtraction of the reference (blank immobilized) surface. Binding responses were related to respective compounds' Rmax. Rmax is the maximum response of a compound when it binds with a 1:1 stochiometry to the protein; Rmax=(MW analyte/MW ligand)×immobilized ligand level on the chip (RU) x stoichiometry (1:1). Kinetic experiments were carried out where recombinant MYC bHLHZip was immobilized on the chip and different concentrations of Example 1 were injected as above. […] Example 2-6 were analyzed for their MYC binding properties by equilibrium binding experiments as described for example 1.

T1 sequence (P01106 368-449 limits assumed): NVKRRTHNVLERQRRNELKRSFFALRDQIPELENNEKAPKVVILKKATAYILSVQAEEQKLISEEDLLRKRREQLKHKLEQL

GI50 [1]: 2500 nM | compound concentration affecting migration of MYC (reverse MST) (MYCbHLHZip [2]): 200 to 400 nM | Kd (MYCbHLHZip [3]; 1:1 Langmuir model, read-out: KD (average of four kinetic experiments)): 1600 ± 500 nM | Kd (MYCbHLHZip [3]; Langmuir 1:1, constant Rmax 43 RU, read-out: KD (one representative kinetic experiment)): 2500 nM | Binding relative to Rmax (MYCbHLHZip [3]; equilibrium binding experiments): 1.6 Response Units | kon (MYCbHLHZip [3]; representative kinetic experiment, read-out: association rate ka): 9290 M⁻¹ s⁻¹ | koff (MYCbHLHZip [3]; representative kinetic experiment, read-out: dissociation rate kd): 0.0229 s⁻¹
SMILES: CCOc1ccc2nc3cc(/N=N/c4ccc(N)nc4N)ccc3c(N)c2c1 [Example 1, 3-((9-amino-7-ethoxyacridin-3-yl)diazenyl)pyridine-2,6-diamine sulphate hydrate]
